From article PMC11365428 (The Journal of Biological Chemistry, 2024) come the findings set out here.

Non-standard residues stand in square brackets, D forms with d. Residues, ends and D or L forms follow the SMILES beside them. pGlu = O=C1CC[C@@H](C(=O)O)N1

For one assay, the target named is T1, apTKRPR-B (Aplysia californica, UniProt A0AAU7STS1).
T1 sequence (A0AAU7STS1 1-447): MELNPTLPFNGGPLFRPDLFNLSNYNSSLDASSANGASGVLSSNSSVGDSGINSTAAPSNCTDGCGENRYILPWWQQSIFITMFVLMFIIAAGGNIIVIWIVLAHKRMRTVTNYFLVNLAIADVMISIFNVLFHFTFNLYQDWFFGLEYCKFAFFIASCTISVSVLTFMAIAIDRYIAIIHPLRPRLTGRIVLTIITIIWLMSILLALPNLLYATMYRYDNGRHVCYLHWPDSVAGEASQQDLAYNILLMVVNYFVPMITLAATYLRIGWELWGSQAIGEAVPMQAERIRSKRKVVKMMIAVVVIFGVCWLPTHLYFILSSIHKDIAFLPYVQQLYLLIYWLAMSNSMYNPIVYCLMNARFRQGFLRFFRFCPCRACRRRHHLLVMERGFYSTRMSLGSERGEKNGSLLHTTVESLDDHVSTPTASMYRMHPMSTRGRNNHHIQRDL
Nature of the assay: IP1 accumulation assay, CHO-K1 cells transiently expressing apTKRPR-B. The assay is classed as cell-based. On the procedure: To express putative Aplysia receptors transiently in CHO-K1 cells, the cDNAs were subcloned into the pcDNA3.1(+) or pcDNA3.1(+)-FLAG (for ELISA experiments only, see “Cell surface expression analysis by ELISA” section) expression vector. On the day before transfection, the CHO-K1 cells were passaged into 60 mm diameter tissue culture–treated dishes, and the transfection experiments were performed when the cells were grown to 70 to 90% confluence. CHO-K1 cells were transfected with the cDNA plasmid constructs using Turbofect Transfection reagent (Thermo Fisher Scientific, R0531), following the manufacturer’s instructions. […] The DNA/TurboFect mixture dropwise was then added to the dish, and the cells were incubated at 37 °C in a humidified incubator containing 5% CO2 overnight.
(§1) On the third day, the activation of the putative receptors was detected by monitoring intracellular IP1 concentration using an IP-One Gq kit (Cisbio, 62IPAPEB) in Tecan Spark. Except for using 0.5x reagent, all other procedures were performed following the manufacturer’s instructions. IP1 accumulation assay measures the accumulation of IP1, which is hydrolyzed from the second messenger, and inositol triphosphate. Inositol triphosphate is generated by the Gαq pathway when a GPCR is activated by an appropriate ligand.

In assay [1] the test system is putative neuropeptide FF receptor (apNPFFR). Briefly: IP1 accumulation assay, CHO-K1 cells transiently expressing putative neuropeptide FF receptor. The assay is classed as cell-based, Aplysia californica. The note with it: 10^-5 M compared with 10^-10 M (control); n = 3; no Gαq cotransfection. On the procedure:
To express putative Aplysia receptors transiently in CHO-K1 cells, the cDNAs were subcloned into the pcDNA3.1(+) or pcDNA3.1(+)-FLAG (for ELISA experiments only, see “Cell surface expression analysis by ELISA” section) expression vector. On the day before transfection, the CHO-K1 cells were passaged into 60 mm diameter tissue culture–treated dishes, and the transfection experiments were performed when the cells were grown to 70 to 90% confluence. CHO-K1 cells were transfected with the cDNA plasmid constructs using Turbofect Transfection reagent (Thermo Fisher Scientific, R0531), following the manufacturer’s instructions. In brief, 4 μg of the putative receptor plasmids [in pcDNA3.1(+) or pcDNA3.1(+)-FLAG] were mixed with 400 μl of Opti-MEM (Gibco, 11058021), followed by the addition of 15 μl of TurboFect Transfection reagent and incubated at room temperature for 15 min. The DNA/TurboFect mixture dropwise was then added to the dish, and the cells were incubated at 37 °C in a humidified incubator containing 5% CO2 overnight.
as §1, with “The next day, transfected cells were trypsinized and reseeded in an opaque white 96-well half-area (Corning, 3688) or 384-well tissue culture–treated plates (Corning, 3570) at a density of 20,000 cells/well in F-12K and 10% FBS and incubated at 37 °C in a humidified incubator containing 5% CO2 overnight. On the” for “On the”

The target in another assay is apTKRPR-B 14A (Aplysia californica, UniProt A0AAU7STS1, S392A/S396A/S399A/S407A/S415A/S421A/S426A/S434A/T393A/T411A/T412A/T422A/T424A/T435A). Briefly: IP1 accumulation assay, Ser/Thr-to-Ala mutant apTKRPR-B 14A. It counts as cell-based. On the procedure:
To express putative Aplysia receptors transiently in CHO-K1 cells, the cDNAs were subcloned into the pcDNA3.1(+) or pcDNA3.1(+)-FLAG (for ELISA experiments only, see “Cell surface expression analysis by ELISA” section) expression vector. On the day before transfection, the CHO-K1 cells were passaged into 60 mm diameter tissue culture–treated dishes, and the transfection experiments were performed when the cells were grown to 70 to 90% confluence. CHO-K1 cells were transfected with the cDNA plasmid constructs using Turbofect Transfection reagent (Thermo Fisher Scientific, R0531), following the manufacturer’s instructions. In brief, 4 μg of the putative receptor plasmids [in pcDNA3.1(+) or pcDNA3.1(+)-FLAG] were mixed with 400 μl of Opti-MEM (Gibco, 11058021), followed by the addition of 15 μl of TurboFect Transfection reagent and incubated at room temperature for 15 min. […]
The next day, transfected cells were trypsinized and reseeded in an opaque white 96-well half-area (Corning, 3688) or 384-well tissue culture–treated plates (Corning, 3570) at a density of 20,000 cells/well in F-12K and 10% FBS and incubated at 37 °C in a humidified incubator containing 5% CO2 overnight. On the third day, the activation of the putative receptors was detected by monitoring intracellular IP1 concentration using an IP-One Gq kit (Cisbio, 62IPAPEB) in Tecan Spark. […]

Chain of apTKRPR-B 14A (A0AAU7STS1 entry or part of it with the stated changes): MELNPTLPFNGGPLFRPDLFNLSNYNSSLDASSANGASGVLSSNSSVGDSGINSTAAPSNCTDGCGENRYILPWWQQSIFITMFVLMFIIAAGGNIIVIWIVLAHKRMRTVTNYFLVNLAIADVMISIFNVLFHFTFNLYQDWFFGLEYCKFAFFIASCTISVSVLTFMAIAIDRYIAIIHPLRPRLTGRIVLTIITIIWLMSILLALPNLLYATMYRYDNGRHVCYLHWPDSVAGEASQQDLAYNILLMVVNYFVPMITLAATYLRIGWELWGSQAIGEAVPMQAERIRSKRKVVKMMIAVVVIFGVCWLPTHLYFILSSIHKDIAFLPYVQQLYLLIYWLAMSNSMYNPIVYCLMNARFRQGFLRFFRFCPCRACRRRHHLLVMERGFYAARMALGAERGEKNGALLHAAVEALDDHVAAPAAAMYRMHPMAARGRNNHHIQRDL

Regarding `CC(C)C[C@H](NC(=O)[C@H](Cc1c[nH]cn1)NC(=O)[C@@H]1CCCN1C(=O)[C@@H]1CCC(=O)N1)C(=O)NCC(=O)N[C@@H](Cc1ccccc1)C(=O)N[C@@H](Cc1c[nH]cn1)C(=O)NCC(=O)N[C@@H](CO)C(=O)N[C@@H](CCCNC(=N)N)C(N)=O` [apTKRP-2b] ([pGlu]PHLGFHGSR-NH2), the values for the EC50 on apTKRPR-B and at apTKRPR-B 14A were 5.37 nM and 24.5 nM, respectively. In addition, the “IP1 response of apTKRPR-B in screening” value on apTKRPR-B (10^-5 M compared with 10^-10 M (control), n = 3, no Gαq cotransfection) is recorded as “responded”. Further, the “IP1 response of putative apNPFFR in screening” value in assay [1] is given as “did not respond”.
